The values below come from patent US10077237B2 (Sanofi, priority 2013, dated 2018).

Several values for one entry are separate records, joined by “and”; a condition that tells them apart may be missing. Identical values can stand only once. Counter-ions that a name gives are not always drawn.

The test addresses T1, recombinant human AMPK complex, containing α2β1γ2 (Homo sapiens, UniProt P54646+Q9Y478).
T1 construct: hsAMPKα2-552-His, hsAMPKβ1-2-270 and hsAMPKγ-2-569 respectively; hsAMPKβ1-2-270; hsAMPKγ-2-569; His (C); made in house; host or cells: Spodoptera frugiperda Sf21 (baculovirus)
The experiment in a line: AMPK in vitro activation assay (HTRF). The test is classed as biochemical. Particulars: for EC50: HTRF, recombinant human α2β1γ2 AMPK, 200 μM ATP, biotinylated ACC-CREBp peptide, repeat determinations on separate lines; for Emax: potentiation of AMPK activity as percent over the basal signal (without compound). How it is done:
The recombinant human AMPK complex, containing α2β1γ2 was obtained from baculovirus expression system and generated by cotransfection in Spodoptera frugiperda 21 (Sf21). […] were produced in serum free medium (SF900 II, Invitrogen) for 82 hours after a triple infection at a multiplicity of infection (M.O.I.) of 0.05, 0.06 and 0.045 for hsAMPKα2-552-His, hsAMPKβ1-2-270 and hsAMPKγ-2-569 respectively. Cells were harvested by centrifugation at 1,000×g for 10 minutes at 4° C. and stored at −80° C. The insect cell pellet from 8 liters of culture was resuspended and homogenized in 580 ml of lysis buffer (20 mM Hepes pH 7.5, 150 mM NaCl, 10 mM imidazole, 50 mM NaF, 10% Glycerol and supplemented with EDTA free proteases inhibitor cocktail Roche). The AMPK complex was partially purified using an affinity chromatography under a Ni-NTA Agarose column equilibrated in the lysis buffer and eluted with a gradient (0 to 400 mM) of Imidazol.
A homogeneous time-resolved fluorescence (HTRF) assay was used (Li et al, Anal. Biochem. (2003) 321, 151-156) to identify compounds with stimulating activity for the recombinant human AMPK. Enzyme reaction was performed into a 96-well microtiter plate. First, 20 μL of test compounds in 0.5% DMSO were dispensed followed by 10 μL of protein in 50 mM HEPES buffer at pH 7.0, 100 mM NaCl, 5 mM MgCl2, 0.01% BSA, 0.8 mM DTT. After, 30 min incubation at room temperature, the reaction was initiated by the addition of 10 μL of a solution containing 200 μM of ATP as donor substrate, 2 μM or 0.08 μM of biotinylated ACC-CREBp peptide (PolyPeptide) as acceptor. Plates were then incubated 45 min at 37° C. The reaction was terminated by the addition of 40 μl detection mixture containing Eu^3+ cryptate-conjugated anti-pS^133-CREB antibody and streptavidine-XL665 (CisBio). Plates were further incubated for 2 h30 at room temperature. The fluorescence signal was measured using an Envision multireader (Perkin Elmer). The non-specific signal was obtained without substrates. Potentiation of AMPK activity was expressed as a percent over the basal signal (without compound) from which an EC50 value was determined.
The EC50 of a graded dose response curve represents the concentration of a compound where 50% of its maximal effect is observed.

T1 sequence (P54646 2-552): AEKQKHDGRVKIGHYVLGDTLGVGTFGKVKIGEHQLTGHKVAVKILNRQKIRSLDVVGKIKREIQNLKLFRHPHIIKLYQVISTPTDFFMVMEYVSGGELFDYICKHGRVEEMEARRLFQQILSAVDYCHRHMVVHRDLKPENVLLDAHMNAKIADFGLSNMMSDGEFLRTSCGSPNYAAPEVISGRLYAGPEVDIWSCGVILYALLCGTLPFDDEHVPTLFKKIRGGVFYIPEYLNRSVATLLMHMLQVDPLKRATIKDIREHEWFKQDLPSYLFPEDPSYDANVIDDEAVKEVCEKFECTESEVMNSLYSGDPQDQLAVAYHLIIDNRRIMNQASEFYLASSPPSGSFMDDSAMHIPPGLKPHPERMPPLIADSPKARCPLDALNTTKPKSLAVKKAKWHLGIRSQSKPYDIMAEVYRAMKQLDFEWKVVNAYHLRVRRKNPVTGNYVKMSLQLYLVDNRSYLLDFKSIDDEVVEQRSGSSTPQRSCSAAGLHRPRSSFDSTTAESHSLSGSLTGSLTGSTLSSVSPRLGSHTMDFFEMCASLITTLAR
T1 sequence (Q9Y478 2-270): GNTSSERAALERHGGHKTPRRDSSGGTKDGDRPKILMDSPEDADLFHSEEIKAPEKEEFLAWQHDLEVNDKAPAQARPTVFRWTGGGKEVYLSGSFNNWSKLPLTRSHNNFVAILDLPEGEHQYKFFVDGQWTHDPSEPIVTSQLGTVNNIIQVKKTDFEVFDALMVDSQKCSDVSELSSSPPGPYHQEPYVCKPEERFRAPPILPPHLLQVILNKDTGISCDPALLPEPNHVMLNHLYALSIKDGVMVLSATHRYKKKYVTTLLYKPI
T1 sequence (Q9UGJ0 2-569 partner limits assumed): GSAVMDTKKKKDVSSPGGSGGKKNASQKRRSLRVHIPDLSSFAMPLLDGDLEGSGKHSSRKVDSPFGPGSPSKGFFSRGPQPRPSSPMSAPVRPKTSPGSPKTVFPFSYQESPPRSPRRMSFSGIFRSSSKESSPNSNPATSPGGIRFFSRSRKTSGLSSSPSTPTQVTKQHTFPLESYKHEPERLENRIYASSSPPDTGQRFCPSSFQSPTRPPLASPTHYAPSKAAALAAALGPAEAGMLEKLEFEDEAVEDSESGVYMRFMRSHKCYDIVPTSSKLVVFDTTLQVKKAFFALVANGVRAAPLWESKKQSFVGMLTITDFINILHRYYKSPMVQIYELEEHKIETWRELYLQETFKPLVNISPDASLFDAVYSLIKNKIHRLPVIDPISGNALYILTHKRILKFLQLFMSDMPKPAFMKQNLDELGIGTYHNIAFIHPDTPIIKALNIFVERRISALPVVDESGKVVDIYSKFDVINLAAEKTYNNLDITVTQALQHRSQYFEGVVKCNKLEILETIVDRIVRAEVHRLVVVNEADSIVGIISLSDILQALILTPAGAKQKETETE

For the compound `O=C1Nc2cc(Cl)c(-c3ccc4ccccc4c3)cc2C1=C(O)c1cccc(F)c1` [Compound 11, 6-Chloro-3-[1-(3-fluoro-phenyl)-1-hydroxy-methylidene]-5-naphthalen-2-yl-1,3-dihydro-indol-2-one], the EC50 came out at 4000 nM and the Emax was found to be 95%. For the compound `COc1cc(C(O)=C2C(=O)Nc3cc(Cl)c(-c4ccc(-c5cccc(OC)c5O)cc4)cc32)on1` [Compound 12], the EC50 stood at 1 nM and the Emax is 172%.

As for `Cc1cc(C(O)=C2C(=O)Nc3cc(Cl)c(-c4ccc(N5CCOCC5)cc4)cc32)sn1` [Compound 13, 6-Chloro-3-[1-hydroxy-1-(3-methyl-isothiazol-5-yl)-methylidene]-5-(4-morpholin-4-yl-phenyl)-1,3-dihydro-indol-2-one], the EC50 was 12 nM and 5 nM. Turning to `Cc1cc(C(O)=C2C(=O)Nc3cc(Cl)c(-c4ccc(N5CCOCC5)cc4)cc32)on1` [Compound 14, 6-Chloro-3-[1-hydroxy-1-(3-methyl-isoxazol-5-yl)-methylidene]-5-(4-morpholin-4-yl-phenyl)-1,3-dihydro-indol-2-one], the EC50 was found to be 38 nM and the Emax amounted to 283%. The matching figures for `Cc1nc(C)c(C(O)=C2C(=O)Nc3cc(Cl)c(-c4ccc(N5CCOCC5)cc4)cc32)s1` [Compound 15, 6-Chloro-3-[1-(2,4-dimethyl-thiazol-5-yl)-1-hydroxy-methylidene]-5-(4-morpholin-4-yl-phenyl)-1,3-dihydro-indol-2-one]: 27 nM and 257%.

On to `Cc1nnc(C(O)=C2C(=O)Nc3cc(Cl)c(-c4ccc(N5CCOCC5)cc4)cc32)o1` [Compound 16, 6-Chloro-3-[1-hydroxy-1-(5-methyl-[1,3,4]oxadiazol-2-yl)-methylidene]-5-(4-morpholin-4-yl-phenyl)-1,3-dihydro-indol-2-one], for which the EC50 amounted to 9 nM and the Emax came out at 268%.

As for `N#Cc1cccc(C(O)=C2C(=O)Nc3cc(Cl)c(-c4ccc(N5CCOCC5)cc4)cc32)c1` [Compound 18, 3-{[6-Chloro-5-(4-morpholin-4-yl-phenyl)-2-oxo-1,2-dihydro-indolylidene]-hydroxy-methyl}-benzonitrile], the EC50 turned out to be 190 nM and the Emax was found to be 135%. As to `COc1ccc(-c2cc3c(cc2Cl)NC(=O)C3=C(O)c2cc(C)no2)cc1` [Compound 20, 6-Chloro-3-[1-hydroxy-1-(3-methyl-isoxazol-5-yl)-methylidene]-5-(4-methoxy-phenyl)-1,3-dihydro-indol-2-one], the EC50 amounted to 410 nM and the Emax was determined as 223%. For the compound `Cc1cc(C(O)=C2C(=O)Nc3cc(Cl)c(-c4ccc(C5CC5)cc4)cc32)on1` [Compound 22, 6-Chloro-5-(4-cyclopropyl-phenyl)-3-[1-hydroxy-1-(3-methyl-isoxazol-5-yl)-methylidene]-1,3-dihydro-indol-2-one], the EC50 was determined as 250 nM and the Emax is 147%.

On to `Cc1cc(C(O)=C2C(=O)Nc3cc(Cl)c(-c4ccc(C5(CO)CC5)cc4)cc32)sn1` [Compound 23, 6-Chloro-5-[4-(1-hydroxymethyl-cyclopropyl)-phenyl]-3-[1-hydroxy-1-(3-methyl-isothiazol-5-yl)-methylidene]-1,3-dihydro-indol-2-one], for which the EC50 is 3 nM and the maximal response (Emax) turned out to be 158%.

As for `Cc1cc(C(O)=C2C(=O)Nc3cc(Cl)c(-c4ccc(N5CCCC5)cc4)cc32)on1` [Compound 24, 6-Chloro-3-[1-hydroxy-1-(3-methyl-isoxazol-5-yl)-methylidene]-5-(4-pyrrolidin-1-yl-phenyl)-1,3-dihydro-indol-2-one], the EC50 is 110 nM and the Emax worked out at 143%.

`O=C1Nc2cc(Cl)c(-c3ccc(N4CCOCC4)cc3)cc2C1=C(O)c1cccnc1` [Compound 25, 6-Chloro-3-[1-hydroxy-1-pyridin-3-yl-methylidene]-5-(4-morpholin-4-yl-phenyl)-1,3-dihydro-indol-2-one]: the EC50 was 320 nM and the Emax is 146%.

As for `O=C1Nc2cc(Cl)c(-c3ccc(C4CC4)cc3)cc2C1=C(O)c1cccc(F)c1` [Compound 26, 6-Chloro-5-(4-cyclopropyl-phenyl)-3-[1-(3-fluoro-phenyl)-1-hydroxy-methylidene]-1,3-dihydro-indol-2-one], the EC50 was 440 nM and the maximal effect (Emax) was 153%. For the compound `O=C1Nc2cc(Cl)c(-c3ccc(C4(CO)CC4)cc3)cc2C1=C(O)c1cccc(F)c1` [Compound 27, 6-Chloro-3-[1-(3-fluoro-phenyl)-1-hydroxy-methylidene]-5-[4-(1-hydroxymethyl-cyclopropyl)-phenyl]-1,3-dihydro-indol-2-one], the concentration giving a half-maximal response (EC50) amounted to 2 nM and the Emax was 129%. For the compound `Cc1cc(C(O)=C2C(=O)Nc3cc(Cl)c(-c4ccc(N5CCOCC5)cc4)cc32)no1` [Compound 28, 6-Chloro-3-[1-hydroxy-1-(5-methyl-isoxazol-3-yl)-methylidene]-5-(4-morpholin-4-yl-phenyl)-1,3-dihydro-indol-2-one], the EC50 was 130 nM and the Emax is 150%. `Cc1cc(C(O)=C2C(=O)Nc3cc(F)c(-c4ccc(N5CCOCC5)cc4)cc32)on1` [Compound 29, 6-Fluoro-3-[1-hydroxy-1-(3-methyl-isoxazol-5-yl)-methylidene]-5-(4-morpholin-4-yl-phenyl)-1,3-dihydro-indol-2-one]: the half-maximal effective concentration (EC50) amounted to 58 nM and the maximal effect (Emax) is 157%. As for `Cc1cc(C(O)=C2C(=O)Nc3cc(Cl)c(-c4ccc(F)cc4)cc32)on1` [Compound 30, 6-Chloro-5-(4-fluoro-phenyl)-3-[1-hydroxy-1-(3-methyl-isoxazol-5-yl)-methylidene]-1,3-dihydro-indol-2-one], the EC50 turned out to be 240 nM and the Emax is 108%. Turning to `Cc1cc(C(O)=C2C(=O)Nc3cc(C)c(-c4ccc(N5CCOCC5)cc4)cc32)on1` [Compound 31, 3-[1-Hydroxy-1-(3-methyl-isoxazol-5-yl)-methylidene]-6-methyl-5-(4-morpholin-4-yl-phenyl)-1,3-dihydro-indol-2-one], the EC50 was 540 nM and the Emax was 147%. The matching figures for `O=C1Nc2cc(Cl)c(-c3ccc(N4CCOCC4)cc3)cc2C1=C(O)c1ccccc1F` [Compound 32, 6-Chloro-3-[1-(2-fluoro-phenyl)-1-hydroxy-methylidene]-5-(4-morpholin-4-yl-phenyl)-1,3-dihydro-indol-2-one]: 140 nM and 112%.

Take `Cc1cc(C(O)=C2C(=O)Nc3cc(Cl)c(-c4ccc(O)cc4)cc32)on1` [Compound 33, 6-Chloro-3-[1-hydroxy-1-(3-methyl-isoxazol-5-yl)-methylidene]-5-(4-hydroxy-phenyl)-1,3-dihydro-indol-2-one]: the EC50 turned out to be 390 nM and the Emax was 120%. Consider `O=C1Nc2cc(Cl)c(-c3ccc(N4CCOCC4)cc3)cc2C1=C(O)c1cccc(Cl)c1` [Compound 34, 6-Chloro-3-[1-(3-chloro-phenyl)-1-hydroxy-methylidene]-5-(4-morpholin-4-yl-phenyl)-1,3-dihydro-indol-2-one], for which the EC50 amounted to 630 nM and the Emax was 156%. For the compound `Cc1cc(C(O)=C2C(=O)Nc3cc(Cl)c(-c4ccc(-c5ccncc5)cc4)cc32)on1` [Compound 35, 6-Chloro-3-[1-hydroxy-1-(3-methyl-isoxazol-5-yl)-methylidene]-5-(4-pyridin-4-yl-phenyl)-1,3-dihydro-indol-2-one, hydrochloride], the EC50 is 23 nM and the Emax worked out at 151%. Take `O=C1Nc2cc(Cl)c(-c3ccc(N4CCOCC4)cc3)cc2C1=C(O)c1ccc(F)cc1` [Compound 36, 6-Chloro-3-[1-(4-fluoro-phenyl)-1-hydroxy-methylidene]-5-(4-morpholin-4-yl-phenyl)-1,3-dihydro-indol-2-one]: the EC50 was 380 nM and the Emax was found to be 153%.

As to `Cc1cc(C(O)=C2C(=O)Nc3cc(Cl)c(-c4ccc(-c5csc(N)n5)cc4)cc32)on1` [Compound 37, 5-[4-(2-Amino-thiazol-4-yl)-phenyl]-6-chloro-3-[1-hydroxy-1-(3-methyl-isoxazol-5-yl)-methylidene]-1,3-dihydro-indol-2-one], the EC50 was determined as 37 nM and the Emax stood at 192%.
